From US9945862B2, “Biomarkers for predicting and assessing responsiveness of thyroid and kidney cancer subjects to lenvatinib compounds” (Eisai R&D Management Co., Ltd., priority 2011, dated 2018)

Assays:
[1] = tested on: thyroid, kidney and endometrial cancers, as well as melanoma; details: phase I; cited from earlier work
[2] = tested on: cytokine, chemokine and angiogenic factors (blood biomarkers); assay: Serum blood biomarkers (cytokine, chemokine and angiogenic factors) by ELISA and multiplex kits, pre- and post-treatment with E7080; assay type: in vivo, human
Experimental: Patients received E7080 at a dose of 24 mg oral once daily in 28 day cycles. […] 7.5 mL of blood was drawn into serum […] tube (SST) and let to clot at room temperature for at least 30 min. Within 60 minutes of sample collection, the tubes were centrifuged for 10 minutes at 20-25° C. at 1400×g. The supernatant was drawn without disturbing the pellet and the serum was mixed and divided into two sample tubes and stored frozen (−70° C.) at an upright position until further treatment for analysis. Serum samples from 58 patients were used for blood biomarker analysis. […] The association of progression free survival with or without a covariate was analyzed. The covariates used are the following PK parameters: cycle 1 day 1 Cmax (E7080 concentration 2 hr after dosing on cycle 1 day 1: MAX1); cycle 1 day 1 Ctrough (E7080 concentration before dosing on cycle1 day 8: MIN1); cycle 2 day 1 Cmax (E7080 concentration 2 hrs after dosing on cycle 2 day 1: MAX2); cycle 2 day 1 Ctrough (E7080 concentration before dosing on cycle 2 day 1: MIN2). Serum samples were tested in batch format where all timepoints from the same subject were assayed on the same day. On the day of assay, samples were removed from −80° C. and allowed to thaw and reach room temperature. The serum samples were tested using the following commercial assay kits as per the manufacturer's instructions: Human Soluble Tie-2 ELISA (R&D Systems Cat. No. DTE200), Human Angiopoietin-1 ELISA (R&D Systems Cat. No. DANG10), Human FGF23 ELISA, Human SDF-1a ELISA. Human Angiopoietin-2 ELISA (R&D Systems Cat. No. DANG20), Human Soluble Receptor Multiplex (Millipore Cat. No. HSCR-32K; sVEGF R1, sVEGF R2 and sVEGF R3 only), Human Cytokine/Chemokine Panel I Multiplex (Millipore Cat. No. MPXHCYTO-60K; IL-1α, IL-1β, IL-1ra, IL-2, IL-4, IL-5, IL-6, IL-7, IL-8, IL-10, IL-12p40, IL-12p70, IL-13, IL-15, IL-17, sCD40L, EGF, Eotaxin, FGF-2, G-CSF, GM-CSF, IFN-γ, IP-10, MCP-1, MIP-1α, MIP-1β, PDGF-AA, RANTES, TGF-α, TNF-α and VEGF only) and Human Growth Factor Multiplex (Origene TruPLEX Cat. No. AM100096; PDGF-AB, PDGF-BB, FGF4, VEGFD, FGF2, EGF, HGF, FLT3LG, ANGPT2, PGF and VEGFA).
The ELISA plates were measured using a Molecular Devices UVmax kinetic microplate reader with SoftMax Pro 5.2 software. The multiplex assays were performed using the Bio-Rad Bio-Plex system with Bio-Plex Manager 4.1 software. Final protein concentrations (pg/mL) were calculated from the standard curve for each assay. Depending on the assay, serum samples may have been diluted in assay buffer prior to testing. In these cases, protein concentrations were multiplied by the dilution factor.
From 58 patient samples, between 27 and 49 pre- and post-treatment blood samples were used for analyses.

## COc1cc2nccc(Oc3ccc(NC(=O)NC4CC4)c(Cl)c3)c2cc1C(N)=O [E7080, 4-(3-chloro-4-(cyclopropylaminocarbonyl)aminophenoxy)-7-methoxy-6-quinolinecarboxamide]
[1]
  Clinical response: response to treatment was observed
[2]; CYCLE 1 DAY 1 (pre-treatment)
  ANG2 (90) concentration (Median), PR group: 829.5 pg/mL
  ANG2 (90) concentration (Median), others (SD or PD): 1032.9 pg/mL
  Ang-2 concentration (Median), PR group: 2530.5 pg/mL
  Ang-2 concentration (Median), others (SD or PD): 3399 pg/mL
  IFN-g concentration (Median), PR group: 7.9 pg/mL
  IFN-g concentration (Median), others (SD or PD): 21.2 pg/mL
[2]; CYCLE 1 DAY 8
  ANG2 (90) concentration (Median), PR group: 591.7 pg/mL
  ANG2 (90) concentration (Median), others (SD or PD): 799.3 pg/mL
  ANG2 (90) serum level post treatment (median): 688.6 pg/mL
  Ang-2 serum level post treatment (median): 1812 pg/mL
  Eotaxin serum level post treatment (median): 154.7 pg/mL
  FLT3 LG (89) serum level post treatment (median): 71.1 pg/mL
  G-CSF serum level post treatment (median): 67.1 pg/mL
  HGF (86) serum level post treatment (median): 1339.3 pg/mL
  IL-6 serum level post treatment (median): 17.3 pg/mL
  IL-7 serum level post treatment (median): 6.4 pg/mL
  IL-8 serum level post treatment (median): 31.7 pg/mL
  IL-17 serum level post treatment (median): 14.4 pg/mL
  IP-10 serum level post treatment (median): 474.3 pg/mL
  PGF (91) serum level post treatment (median): 35.9 pg/mL
  SDF-1a concentration (Median), PR group: 3294 pg/mL
  SDF-1a concentration (Median), others (SD or PD): 2915 pg/mL
  SDF-1a serum level post treatment (median): 3129.0 pg/mL
  TGFa serum level post treatment (median): 14.6 pg/mL
  Tie-2 serum level post treatment (median): 31685 pg/mL
  VEGF serum level post treatment (median): 741.4 pg/mL
  VEGFA (100) serum level post treatment (median): 202.1 pg/mL
  sVEGFR1 serum level post treatment (median): 300 pg/mL
  sVEGFR2 serum level post treatment (median): 18823.1 pg/mL
[2]; CYCLE 1 DAY 8/CYCLE 1 DAY 1
  FGF-2 ratio (Median), PR group: 1.189
  FGF-2 ratio (Median), others (SD or PD): 0.952
  GM-CSF ratio (Median), PR group: 1.037
  GM-CSF ratio (Median), others (SD or PD): 0.945
[2]; CYCLE 1 DAY 8 vs CYCLE 1 DAY 1
  ANG2 (90) fold change (median): 0.671
  Ang-2 fold change (median): 0.665
  Eotaxin fold change (median): 1.171
  FLT3 LG (89) fold change (median): 0.885
  G-CSF fold change (median): 1.25
  HGF (86) fold change (median): 1.096
  IL-6 fold change (median): 1.824
  IL-7 fold change (median): 1
  IL-8 fold change (median): 1.164
  IL-17 fold change (median): 1.025
  IP-10 fold change (median): 1.249
  PGF (91) fold change (median): 2.306
  SDF-1a fold change (median): 1.21
  TGFa fold change (median): 1.157
  Tie-2 fold change (median): 0.917
  VEGF fold change (median): 1.29
  VEGFA (100) fold change (median): 1.28
